Measured values from PubChem BioAssay AID248 (DTP/NCI, 2004).
Where “and” joins values, the source holds several entries; their conditions need not be identical. Identical values can stand only once. Toxic doses and inconclusive results are not listed. Cut-off read from the data, not from the text of the source: active = T/C of 150% or more; inactive = T/C below 125%.

System: L1210 leukemia ip in BDF1 mice, survival T/C
Experiment: NCI In Vivo Anticancer Drug Screen. Data for tumor model L1210 Leukemia (intraperitoneal) in B6D2F1 (BDF1) mice
Conditions: endpoint: mean survival time, higher = longer survival
In short: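 In this screen, tumor-bearing mice given compound are compared to those given vehicle, and their survival values are reported as a treated-to-control quotient.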

[1] = dose: 100.0 mg/kg/injection, schedule: Q01DX001 (ip), vehicle: saline
[2] = dose: 200.0 mg/kg/injection, schedule: Q01DX001 (ip), vehicle: saline
[3] = dose: 400.0 mg/kg/injection, schedule: Q01DX001 (ip), vehicle: saline
[4] = dose: 100.0 mg/kg/injection, schedule: Q04DX003 (ip), vehicle: saline with Tween-80
[5] = dose: 200.0 mg/kg/injection, schedule: Q04DX003 (ip), vehicle: saline with Tween-80
[6] = dose: 400.0 mg/kg/injection, schedule: Q04DX003 (ip), vehicle: saline with Tween-80
[7] = dose: 100.0 mg/kg/injection, schedule: Q04DX003 (ip), vehicle: saline
[8] = dose: 200.0 mg/kg/injection, schedule: Q04DX003 (ip), vehicle: saline
[9] = dose: 400.0 mg/kg/injection, schedule: Q04DX003 (ip), vehicle: saline

Measured: T/C

CCOc1cc(/C=N\Nc2nncn2N)ccc1N(CCCl)CCCl
inactive: dose: 0.5 mg/kg/injection, schedule: Q01DX015 (ip), vehicle: carboxymethylcellulose (CMC) 109 % of control | dose: 1.0 mg/kg/injection, schedule: Q01DX015 (ip), vehicle: carboxymethylcellulose (CMC) 111 % of control | dose: 2.0 mg/kg/injection, schedule: Q01DX015 (ip), vehicle: carboxymethylcellulose (CMC) 116 % of control | dose: 4.0 mg/kg/injection, schedule: Q01DX015 (ip), vehicle: carboxymethylcellulose (CMC) 101 % of control and 109 % of control | dose: 5.0 mg/kg/injection, schedule: Q01DX001 (ip), vehicle: carboxymethylcellulose (CMC) 98 % of control and 117 % of control | dose: 7.0 mg/kg/injection, schedule: Q01DX015 (ip), vehicle: carboxymethylcellulose (CMC) 107 % of control and 90 % of control | dose: 10.0 mg/kg/injection, schedule: Q01DX001 (ip), vehicle: carboxymethylcellulose (CMC) 101 % of control | dose: 12.0 mg/kg/injection, schedule: Q01DX015 (ip), vehicle: carboxymethylcellulose (CMC) 98 % of control and 117 % of control | dose: 20.0 mg/kg/injection, schedule: Q01DX001 (ip), vehicle: carboxymethylcellulose (CMC) 95 % of control and 106 % of control | dose: 20.0 mg/kg/injection, schedule: Q01DX015 (ip), vehicle: carboxymethylcellulose (CMC) 120 % of control | dose: 40.0 mg/kg/injection, schedule: Q01DX001 (ip), vehicle: carboxymethylcellulose (CMC) 106 % of control

O=C1CC2CCCCC2O1 (stereo unspecified)
inactive: dose: 50.0 mg/kg/injection, schedule: Q01DX009 (ip), vehicle: saline with Tween-80 96 % of control | dose: 75.0 mg/kg/injection, schedule: Q01DX001 (ip), vehicle: other 103 % of control | dose: 100.0 mg/kg/injection, schedule: Q01DX009 (ip), vehicle: saline with Tween-80 88 % of control | dose: 150.0 mg/kg/injection, schedule: Q01DX001 (ip), vehicle: other 97 % of control and 115 % of control

COc1cc2ccc3c4ccccc4c[n+](C)c3c2cc1OC
inactive: dose: 18.75 mg/kg/injection, schedule: Q01DX001 (ip), vehicle: saline with Tween-80 106 % of control | dose: 37.5 mg/kg/injection, schedule: Q01DX001 (ip), vehicle: saline with Tween-80 106 % of control | dose: 75.0 mg/kg/injection, schedule: Q01DX001 (ip), vehicle: saline with Tween-80 113 % of control

NS(=O)(=O)CS(N)(=O)=O
inactive: [1] 100 % of control | [2] 96 % of control | [3] 96 % of control

CCOC(=O)CC(COC)C(C(=O)OCC)C(=O)OCC (stereo unspecified)
inactive: dose: 100.0 mg/kg/injection, schedule: Q01DX009 (ip), vehicle: other 100 % of control | dose: 100.0 mg/kg/injection, schedule: Q04DX003 (ip), vehicle: other 88 % of control | dose: 200.0 mg/kg/injection, schedule: Q01DX009 (ip), vehicle: other 100 % of control | dose: 200.0 mg/kg/injection, schedule: Q04DX003 (ip), vehicle: other 94 % of control | dose: 400.0 mg/kg/injection, schedule: Q01DX009 (ip), vehicle: other 98 % of control | dose: 400.0 mg/kg/injection, schedule: Q04DX003 (ip), vehicle: other 105 % of control

O=C(Nc1ccc(C(=O)Nc2cc(S(=O)(=O)O)cc3cccc(S(=O)(=O)O)c23)cc1)Nc1ccc(C(=O)Nc2cc(S(=O)(=O)O)cc3cccc(S(=O)(=O)O)c23)cc1
inactive: dose: 37.5 mg/kg/injection, schedule: Q04DX003 (ip), vehicle: carboxymethylcellulose (CMC) 97 % of control | dose: 75.0 mg/kg/injection, schedule: Q01DX001 (ip), vehicle: carboxymethylcellulose (CMC) 93 % of control | dose: 75.0 mg/kg/injection, schedule: Q04DX003 (ip), vehicle: carboxymethylcellulose (CMC) 101 % of control | dose: 150.0 mg/kg/injection, schedule: Q01DX001 (ip), vehicle: carboxymethylcellulose (CMC) 105 % of control | dose: 150.0 mg/kg/injection, schedule: Q04DX003 (ip), vehicle: carboxymethylcellulose (CMC) 95 % of control

CCCCCCCCCC(Br)C(C)(C)COO (stereo unspecified)
inactive: dose: 50.0 mg/kg/injection, schedule: Q01DX001 (ip), vehicle: water 97 % of control | dose: 100.0 mg/kg/injection, schedule: Q01DX001 (ip), vehicle: water 101 % of control | dose: 200.0 mg/kg/injection, schedule: Q01DX001 (ip), vehicle: water 102 % of control

Nc1nc(=S)[nH]c2nsnc12
inactive: [4] 98 % of control | [5] 96 % of control | [6] 103 % of control

BrC#CC1=CCCCC1
inactive: dose: 100.0 mg/kg/injection, schedule: Q01DX009 (ip), vehicle: acetone 88 % of control | [7] 105 % of control | dose: 200.0 mg/kg/injection, schedule: Q01DX009 (ip), vehicle: acetone 86 % of control | [8] 103 % of control | dose: 400.0 mg/kg/injection, schedule: Q01DX009 (ip), vehicle: acetone 108 % of control | [9] 107 % of control

CCNc1c([N+](=O)[O-])cc(S(=O)(=O)O)cc1[N+](=O)[O-]
inactive: [7] 116 % of control | [8] 105 % of control | [9] 95 % of control

COc1cc(C(=O)CO)cc(OC)c1OC(C)=O
inactive: dose: 5.0 mg/kg/injection, schedule: Q01DX001 (ip), vehicle: saline 97 % of control | dose: 10.0 mg/kg/injection, schedule: Q01DX001 (ip), vehicle: saline 103 % of control | dose: 20.0 mg/kg/injection, schedule: Q01DX001 (ip), vehicle: saline 89 % of control | dose: 40.0 mg/kg/injection, schedule: Q01DX001 (ip), vehicle: saline 97 % of control | dose: 80.0 mg/kg/injection, schedule: Q01DX001 (ip), vehicle: saline 92 % of control

COc1ccc(COC(=O)Oc2ccc(OC)cc2)cc1
inactive: dose: 100.0 mg/kg/injection, schedule: Q04DX003 (ip), vehicle: Klucel (hydroxypropylcellulose) (HPC) 102 % of control | dose: 200.0 mg/kg/injection, schedule: Q04DX003 (ip), vehicle: Klucel (hydroxypropylcellulose) (HPC) 98 % of control | dose: 400.0 mg/kg/injection, schedule: Q04DX003 (ip), vehicle: Klucel (hydroxypropylcellulose) (HPC) 112 % of control

O=C1CCC[C@@H]2[C@H]3CCCN4CCC[C@@H](CN12)[C@@H]34
inactive: dose: 75.0 mg/kg/injection, schedule: Q01DX001 (ip), vehicle: saline 105 % of control | dose: 150.0 mg/kg/injection, schedule: Q01DX001 (ip), vehicle: saline 96 % of control

CC(C(=O)c1ccccc1)C(O)(C(F)(F)F)C(F)(F)F (stereo unspecified)
inactive: [4] 97 % of control | [5] 97 % of control | [6] 99 % of control

COc1cc(Br)c(NC(C)=O)cc1OC
inactive: [1] 98 % of control | [2] 108 % of control | [3] 96 % of control

O=c1oc2c(Cl)cc(Cl)cc2cc1-c1nc2ccccc2[nH]1
inactive: dose: 100.0 mg/kg/injection, schedule: Q04DX002 (ip), vehicle: saline with Tween-80 100 % of control | dose: 200.0 mg/kg/injection, schedule: Q04DX002 (ip), vehicle: saline with Tween-80 93 % of control | dose: 400.0 mg/kg/injection, schedule: Q04DX002 (ip), vehicle: saline with Tween-80 96 % of control

N=C(N)SCCN1CCCCC1
inactive: dose: 75.0 mg/kg/injection, schedule: Q01DX001 (ip), vehicle: acetone 102 % of control | dose: 150.0 mg/kg/injection, schedule: Q01DX001 (ip), vehicle: acetone 100 % of control

O=C(Nc1ccccc1)c1cc(Cl)cc(Cl)c1Br
inactive: dose: 100.0 mg/kg/injection, schedule: Q01DX001 (ip), vehicle: other 96 % of control | dose: 200.0 mg/kg/injection, schedule: Q01DX001 (ip), vehicle: other 96 % of control | dose: 400.0 mg/kg/injection, schedule: Q01DX001 (ip), vehicle: other 95 % of control

CC1(C)C(=O)C2CCC1C2 (stereo unspecified)
inactive: dose: 100.0 mg/kg/injection, schedule: Q04DX002 (ip), vehicle: Klucel (hydroxypropylcellulose) (HPC) 90 % of control | dose: 200.0 mg/kg/injection, schedule: Q04DX002 (ip), vehicle: Klucel (hydroxypropylcellulose) (HPC) 87 % of control | dose: 400.0 mg/kg/injection, schedule: Q04DX002 (ip), vehicle: Klucel (hydroxypropylcellulose) (HPC) 103 % of control

COc1ccc(OC)c(NC(=S)Nc2ccccc2)c1
inactive: dose: 100.0 mg/kg/injection, schedule: Q01DX009 (ip), vehicle: Klucel (hydroxypropylcellulose) (HPC) 98 % of control | dose: 200.0 mg/kg/injection, schedule: Q01DX009 (ip), vehicle: Klucel (hydroxypropylcellulose) (HPC) 97 % of control | dose: 400.0 mg/kg/injection, schedule: Q01DX009 (ip), vehicle: Klucel (hydroxypropylcellulose) (HPC) 92 % of control

COC(=O)CC(C)=S.[Ni]
inactive: dose: 50.0 mg/kg/injection, schedule: Q01DX001 (ip), vehicle: saline 98 % of control | [1] 98 % of control | [2] 98 % of control | [3] 117 % of control
